Data reported in PubChem BioAssay AID2060896 (Molecular Pharmacology Branch, DTP, NCI, 2025).

Test system: 941728-121-R-J1-PDC complex spheroid viability
Experiment: Anticancer human tumor 941728-121-R-J1-PDC patient-derived lung adenocarcinoma cell line growth inhibition [RAS]
Conditions: for IC50: curve of first compound; for viability, T/C: stronger effect = lower value
Procedure, shortened: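 Tumour cells grown as complex spheroids with HUVEC endothelial cells and mesenchymal stem cells, treated with RAS pathway inhibitor combinations. Each agent spans half-log steps from near clinical Cmax, or 10 microM where Cmax is unknown.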

[1] = second compound 0.000949 µM, first compound 0.0316 µM
[2] = second compound 0.000949 µM, first compound 0.1 µM
[3] = second compound 0.000949 µM, first compound 0.316 µM
[4] = second compound 0.000949 µM, first compound 1 µM
[5] = second compound 0.000949 µM, first compound 3.16 µM
[6] = second compound 0.000949 µM, first compound 10 µM
[7] = second compound 0.003 µM, first compound 0.0316 µM
[8] = second compound 0.003 µM, first compound 0.1 µM
[9] = second compound 0.003 µM, first compound 0.316 µM
[10] = second compound 0.003 µM, first compound 1 µM
[11] = second compound 0.003 µM, first compound 3.16 µM
[12] = second compound 0.003 µM, first compound 10 µM
[13] = second compound 0.00949 µM, first compound 0.0316 µM
[14] = second compound 0.00949 µM, first compound 0.1 µM
[15] = second compound 0.00949 µM, first compound 0.316 µM
[16] = second compound 0.00949 µM, first compound 1 µM
[17] = second compound 0.00949 µM, first compound 3.16 µM
[18] = second compound 0.00949 µM, first compound 10 µM
[19] = second compound 0.03 µM, first compound 0.0316 µM
[20] = second compound 0.03 µM, first compound 0.1 µM
[21] = second compound 0.03 µM, first compound 0.316 µM
[22] = second compound 0.03 µM, first compound 1 µM
[23] = second compound 0.03 µM, first compound 3.16 µM
[24] = second compound 0.03 µM, first compound 10 µM
[25] = second compound 0.0949 µM, first compound 0.0316 µM
[26] = second compound 0.0949 µM, first compound 0.1 µM
[27] = second compound 0.0949 µM, first compound 0.316 µM
[28] = second compound 0.0949 µM, first compound 1 µM
[29] = second compound 0.0949 µM, first compound 3.16 µM
[30] = second compound 0.0949 µM, first compound 10 µM
[31] = second compound 0.3 µM, first compound 0.0316 µM
[32] = second compound 0.3 µM, first compound 0.1 µM
[33] = second compound 0.3 µM, first compound 0.316 µM
[34] = second compound 0.3 µM, first compound 1 µM
[35] = second compound 0.3 µM, first compound 3.16 µM
[36] = second compound 0.3 µM, first compound 10 µM
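Note: spheroids exposed to compounds for 7 days before readout.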
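Throughout, for viability, T/C: 100% = DMSO vehicle control viability.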

Cc1nc(N2CCC3(CC2)COC(C)C3N)c(CO)nc1Sc1ccnc(N)c1Cl (stereo unspecified) + CCn1c(-c2cc(N3CCN(C)CC3)cnc2C(C)OC)c2c3cc(ccc31)-c1csc(n1)CC(NC(=O)C1CC1C)C(=O)N1CCCC(N1)C(=O)OCC(C)(C)C2
IC50 (second compound 0.000949 µM): < 31.6 nM
IC50 (second compound 0.003 µM): < 31.6 nM
IC50 (second compound 0.00949 µM): < 31.6 nM
IC50 (second compound 0.03 µM): < 31.6 nM
IC50 (second compound 0.0949 µM): < 31.6 nM
IC50 (second compound 0.3 µM): < 31.6 nM
viability, T/C [1]: 25.1%
viability, T/C [2]: 21%
viability, T/C [3]: 14.6%
viability, T/C [4]: 19.2%
viability, T/C [5]: 18.7%
viability, T/C [6]: 12.9%
viability, T/C [7]: 19.2%
viability, T/C [8]: 17.7%
viability, T/C [9]: 13.3%
viability, T/C [10]: 13.4%
viability, T/C [11]: 13.6%
viability, T/C [12]: 9.72%
viability, T/C [13]: 14.6%
viability, T/C [14]: 12%
viability, T/C [15]: 12.8%
viability, T/C [16]: 13.6%
viability, T/C [17]: 11.9%
viability, T/C [18]: 11%
viability, T/C [19]: 11.9%
viability, T/C [20]: 15.5%
viability, T/C [21]: 13.9%
viability, T/C [22]: 13.2%
viability, T/C [23]: 9.2%
viability, T/C [24]: 13.5%
viability, T/C [25]: 13.3%
viability, T/C [26]: 14.4%
viability, T/C [27]: 12.8%
viability, T/C [28]: 14.3%
viability, T/C [29]: 9.5%
viability, T/C [30]: 11.1%
viability, T/C [31]: 13.1%
viability, T/C [32]: 12.8%
viability, T/C [33]: 12.6%
viability, T/C [34]: 11.2%
viability, T/C [35]: 12%
viability, T/C [36]: 13.1%

NC1c2ccccc2OC12CCN(c1cnc3c(N4CCCc5ncccc54)n[nH]c3n1)CC2 (stereo unspecified) + CCn1c(-c2cc(N3CCN(C)CC3)cnc2C(C)OC)c2c3cc(ccc31)-c1csc(n1)CC(NC(=O)C1CC1C)C(=O)N1CCCC(N1)C(=O)OCC(C)(C)C2
IC50 (second compound 0.000949 µM): < 31.6 nM
IC50 (second compound 0.003 µM): < 31.6 nM
IC50 (second compound 0.00949 µM): < 31.6 nM
IC50 (second compound 0.03 µM): < 31.6 nM
IC50 (second compound 0.0949 µM): < 31.6 nM
IC50 (second compound 0.3 µM): < 31.6 nM
viability, T/C [1]: 22%
viability, T/C [2]: 17.4%
viability, T/C [3]: 13.4%
viability, T/C [4]: 16.5%
viability, T/C [5]: 16.6%
viability, T/C [6]: 12%
viability, T/C [7]: 15.2%
viability, T/C [8]: 12.4%
viability, T/C [9]: 10.6%
viability, T/C [10]: 14%
viability, T/C [11]: 13.8%
viability, T/C [12]: 10.3%
viability, T/C [13]: 13.7%
viability, T/C [14]: 10.5%
viability, T/C [15]: 12.5%
viability, T/C [16]: 10.8%
viability, T/C [17]: 9.25%
viability, T/C [18]: 9.84%
viability, T/C [19]: 11.9%
viability, T/C [20]: 12.4%
viability, T/C [21]: 12.1%
viability, T/C [22]: 11.1%
viability, T/C [23]: 11.3%
viability, T/C [24]: 15.1%
viability, T/C [25]: 11.4%
viability, T/C [26]: 13.5%
viability, T/C [27]: 12.8%
viability, T/C [28]: 12.2%
viability, T/C [29]: 10.5%
viability, T/C [30]: 15.2%
viability, T/C [31]: 11.6%
viability, T/C [32]: 12.1%
viability, T/C [33]: 10.4%
viability, T/C [34]: 10.9%
viability, T/C [35]: 10.4%
viability, T/C [36]: 15.5%

Nc1ccn(C2OC(CO)C(O)C2(F)F)c(=O)n1 (stereo unspecified) + CCn1c(-c2cc(N3CCN(C)CC3)cnc2C(C)OC)c2c3cc(ccc31)-c1csc(n1)CC(NC(=O)C1CC1C)C(=O)N1CCCC(N1)C(=O)OCC(C)(C)C2
IC50 (second compound 0.000949 µM): < 3.16 nM
IC50 (second compound 0.003 µM): < 3.16 nM
IC50 (second compound 0.00949 µM): < 3.16 nM
IC50 (second compound 0.03 µM): < 3.16 nM
IC50 (second compound 0.0949 µM): < 3.16 nM
IC50 (second compound 0.3 µM): < 3.16 nM
viability, T/C (second compound 0.000949 µM, first compound 0.00316 µM): 25.2%
viability, T/C (second compound 0.000949 µM, first compound 0.01 µM): 25.2%
viability, T/C [1]: 16.8%
viability, T/C [2]: 21.1%
viability, T/C [3]: 21%
viability, T/C [4]: 17.1%
viability, T/C (second compound 0.003 µM, first compound 0.00316 µM): 18.2%
viability, T/C (second compound 0.003 µM, first compound 0.01 µM): 16.7%
viability, T/C [7]: 13.1%
viability, T/C [8]: 15.3%
viability, T/C [9]: 16.6%
viability, T/C [10]: 12.2%
viability, T/C (second compound 0.00949 µM, first compound 0.00316 µM): 13.2%
viability, T/C (second compound 0.00949 µM, first compound 0.01 µM): 11.3%
viability, T/C [13]: 12.9%
viability, T/C [14]: 12.9%
viability, T/C [15]: 12.4%
viability, T/C [16]: 10.5%
viability, T/C (second compound 0.03 µM, first compound 0.00316 µM): 12.4%
viability, T/C (second compound 0.03 µM, first compound 0.01 µM): 11.8%
viability, T/C [19]: 10.8%
viability, T/C [20]: 10.7%
viability, T/C [21]: 10.8%
viability, T/C [22]: 10.1%
viability, T/C (second compound 0.0949 µM, first compound 0.00316 µM): 13.3%
viability, T/C (second compound 0.0949 µM, first compound 0.01 µM): 10.6%
viability, T/C [25]: 12.8%
viability, T/C [26]: 11%
viability, T/C [27]: 9.57%
viability, T/C [28]: 11%
viability, T/C (second compound 0.3 µM, first compound 0.00316 µM): 10.7%
viability, T/C (second compound 0.3 µM, first compound 0.01 µM): 10.2%
viability, T/C [31]: 11%
viability, T/C [32]: 10.4%
viability, T/C [33]: 10.2%
viability, T/C [34]: 11.7%
